According to patent US20150307938A1, “METHOD TO IDENTIFY A NOVEL CLASS OF IMMUNOLOGIC ADJUVANTS” (Lancell, L.L.C., priority 2011, published 2015):

System: PR8
Design: species or system mice
Details: mouse, in vivo

SMILES: CCCCOC(=O)c1ccccc1C(=O)OCCCC [DBP, dibutylphthalate]
- survival of a lethal dose of virus: mice survived a lethal dose of virus
